Test results as given in patent publication EP4806892A1, “CEREBLON E3 UBIQUITIN LIGASE INHIBITOR” (GAN & LEE PHARMACEUTICALS CO., LTD., priority 2023, dated 2025).

Legend:
Type in all cases: cell-based
[1] = test system: IL-6; assay: LPS-induced IL-6 secretion by hPBMC (ELISA); settings: Homo sapiens, 20 h compound then LPS 200 ng/mL for 5 h; for inhibition at […]: 2500nM, read-out: Inhibition Rate of IL-6 (2500nM)
Description: (§1) After thawing, cryopreserved hPBMC (FPB003F-C, Shanghai OriBiotech.) cells were resuspended in RPMI 1640 medium (30-2001, ATCC) containing 10% inactivated FBS (10099141C, Gibco) and cultured overnight at 37°C and 5% CO2. The next day, hPBMC cells were seeded in a 96-well cell culture plate at a density of 2 × 10^5 cells/well/100 µL (2 × 10^6 cells/mL), and 100 µL of compound in dimethyl sulfoxide solution (final concentration 0.0064-2500 nM) was added. […] The cell plate was placed in a 37°C, 5% CO2 incubator for 5 h, and then centrifuged at 1000 rpm for 15 min. 100 µL of cell supernatant was collected from each well for cytokine concentration testing, awhich was tested immediately or frozen at -80°C for testing.
The IL-6 concentration in the supernatant of hPBMC cells induced by LPS was determined using a Human IL-6 ELISA kit (D6050, RD).
IL-6 standard solutions of varying concentrations were prepared according to the product instructions, ranging from 0 to 300 pg/mL. 100 µL of Assay Diluent RD1W and 100 µL of standard solution or sample supernatant were added to a pre-coated ELISA plate and incubated at room temperature for 2 hours. After washing the plate four times with 1× wash buffer, then 200 µL of Human IL-6 Conjugate was added and incubated at room temperature for 2 hours. After washing the plate four times with 1× wash buffer, then 200 µL of Substrate Solution was added and incubated at room temperature for 20 minutes. Finally, 50 µL of Stop Solution was added to terminate the reaction. The absorbance at 450 nm and 570 nm were read using a microplate reader (SPARK m1000pro, TECAN). The standard curve was plottd by the signal value of each concentration of IL-6 standard solution, and the IL-6 concentration in each sample was determined according to the corresponding concentration of the signal value of each well on the standard curve. The inhibition rate of the compound on LPS-induced IL-6 in the hPBMC cell supernatant at different drug concentrations was calculated according to the IL-6 concentration. The inhibition rate data were plotted in GraphPad Prism 8.0 software to calculate the IC50 value. Inhibition Rate = [1−(OD(sample)−OD(blank))/(OD(control)−OD(blank))] × 100% [formula] Table 10: Inhibitory effect of Example compounds on LPS-induced IL-6 secretion by hPBMC

[2] = test system: TNFα; assay: LPS-induced TNFα secretion by PBMC (HTRF detection); settings: Homo sapiens, hPBMC, 20 hours compound then LPS 200 ng/mL for 5 hours, read-out: IC50 (inhibition of LPS-induced TNFα)
Description: as §1, with “OriBiotech)” for “OriBiotech.)”, “(30-2001,ATCC)” for “(30-2001, ATCC)”, “hours,” for “h,”, “minutes.” for “min.”, “which” for “awhich”
The TNFα concentration in the supernatant of LPS-induced THP-1 cells was determined using the TNF […] detection kit (62[…], PerkinElmer).
TNFα standard solutions of varying concentrations were prepared according to the product instructions, ranging from 0 to 2500 pg/mL. Equal volumes of Eu Cryptate antibody (1×) and d2 antibody (1×) were used to prepare the antibody mixture. 16 µL of standard solution or sample supernatant and 4 µL of the antibody mixture were added to each well of a 384-well white plate. The mixture was centrifuged at 800 rpm for 1 minute and incubated at room temperature for 2 hours. The absorbance at 620 nm and […] was read using a microplate reader (SPARK m1000pro, TECAN). A standard curve was plotted using the signal values of each TNFα standard solution. The TNFα concentration in each sample was determined based on the corresponding concentration of the signal value on the standard curve. The inhibitory rate of the compound on LPS-induced TNFα expression in THP-1 cell supernatants at different drug concentrations was calculated based on the TNFα concentration. The inhibition rate data were plotted in GraphPad Prism 8.0 software, and the IC50 value was calculated. Inhibition Rate = [1−(OD(Sample)−OD(Blank))/(OD(Control)−OD(Blank))] × 100% [formula] Table 9: Degradation effect of example compounds on IRAK4 in PBMC cells

[3] = molecular target: T1, IRAK4 (Homo sapiens, UniProt Q9NWZ3); assay: IRAK4 degradation in THP-1 cells (Western blot); settings: 24 hours
T1 construct: The supernatant was carefully collected and analyzed for IRAK4 protein levels by immunoblotting; host or cells: THP-1
T1 sequence (Q9NWZ3 1-460): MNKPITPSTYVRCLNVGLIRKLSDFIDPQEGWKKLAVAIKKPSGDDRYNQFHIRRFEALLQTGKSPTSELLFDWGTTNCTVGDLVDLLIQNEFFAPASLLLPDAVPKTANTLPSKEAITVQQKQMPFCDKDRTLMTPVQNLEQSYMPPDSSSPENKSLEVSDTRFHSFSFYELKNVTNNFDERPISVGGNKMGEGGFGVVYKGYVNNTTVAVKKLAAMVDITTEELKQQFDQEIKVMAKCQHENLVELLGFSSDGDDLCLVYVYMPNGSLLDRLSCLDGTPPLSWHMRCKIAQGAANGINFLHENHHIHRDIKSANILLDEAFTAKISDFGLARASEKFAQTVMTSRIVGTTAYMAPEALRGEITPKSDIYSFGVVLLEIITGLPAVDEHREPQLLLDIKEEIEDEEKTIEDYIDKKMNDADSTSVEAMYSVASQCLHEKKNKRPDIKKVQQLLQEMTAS
Description: 2 mL of THP-1 cells were seeded into a 6-well cell culture plate at a density of 4 × 10^5 cells/well. After adding 1 µL of compound in dimethyl sulfoxide solution (final concentration 10-10,000 nM) and continuing to incubate at 37°C, 5% CO2 for 24 hours, cells were collected into 2 mL centrifuge tubes and centrifuged at 125 g at 4°C for 5 minutes. The cell pellet was washed once with 1 mL of pre-chilled 1× DPBS and resuspended and lysed in 50 µL of RIPA lysis buffer (P0013B, Beyotime) and 1× protease inhibitor cocktail (P1005, Beyotime). After incubation on ice for 20 minutes, the cells were centrifuged at 14,000 g at 4°C for 30 minutes. The supernatant was carefully collected and analyzed for IRAK4 protein levels by immunoblotting.
Western blotting: The total protein concentration in the collected cell lysate supernatant was determined using the BCA protein concentration assay kit (enhanced) (P0009, Beyotime). Based on the total protein concentration detected by BCA, the protein concentration was adjusted to 1 µg/µL using RIPA lysis buffer and 5× SDS-PAGE protein loading buffer (MB01015, GenScript). The protein was denatured in a 95°C water bath for 5 minutes. After denaturation, the condensed water on the centrifuge tube wall was collected by centrifugation and used as the loading sample. […] Electrophoresis was performed at 100 V for 20 minutes, then switched to 150 V for 40 minutes. After electrophoresis, the proteins in the SDS-PAGE gel were transferred to a PVDF membrane and transferred at a constant voltage of 100 V for 60 minutes. After transfer, the PVDF membrane corresponding to the IRAK4 protein and internal reference protein was cut and incubated in 1× QuickBlock blocking buffer (P0252, Beyotime) for 30 minutes at room temperature on a shaker. […] After incubation, the PVDF membrane was washed three times with 1× TBST buffer for 5 minutes each. […] The membrane was then washed again three times with 1× TBST buffer for 5 minutes each. Finally, the membrane was imaged using a dual-color infrared laser imaging system (Odyssey DLx, LI-COR). Protein maps were analyzed for grayscale values using Image Studio Lite software. The grayscale correction value for each sample was calculated using the formula: grayscale correction value = grayscale value of the target protein / grayscale value of the corresponding internal reference. The grayscale correction values of the compound group and the control group were then compared to calculate the degradation rate of the compound.

Structure (SMILES)	IC50 [2] [nM]	IRAK4 degradation (10nM) [3]	IRAK4 degradation (100nM) [3]	inhibition at […] [1] [%]	inhibition at 0.02 µM ([1]; 20nM, read-out: Inhibition Rate of IL-6 (20nM)) [%]
O=C1CCN(c2ccc3c(c2)OCC[C@H]2CN(C[C@H]4CC[C@@H](OC5CCN(C(=O)[C@H]6CC[C@H](n7cc(NC(=O)c8cnn9ccc(N%10C[C@H]%11C[C@@H]%10CO%11)nc89)c(C(F)F)n7)CC6)CC5)CC4)CCN32)C(=O)N1 [IR-P-1]	78.6	B (50% > degradation rate ≥ 20%)	B (50% > degradation rate ≥ 20%)	87	–
O=C1CCN(c2ccc3c(c2)OCC[C@H]2CN(C[C@H]4CC[C@H](OC5CCN(C(=O)[C@H]6CC[C@H](n7cc(NC(=O)c8cnn9ccc(N%10C[C@H]%11C[C@@H]%10CO%11)nc89)c(C(F)F)n7)CC6)CC5)CC4)CCN32)C(=O)N1 [IR-P-3]	64.3	A (a degradation rate ≥ 50%)	A (a degradation rate ≥ 50%)	89	63
O=C1CCN(c2ccc3c(c2)OC2(CC3)CN(CC3CCN(C(=O)[C@H]4CC[C@H](n5cc(NC(=O)c6cnn7ccc(N8C[C@H]9C[C@@H]8CO9)nc67)c(C(F)F)n5)CC4)CC3)C2)C(=O)N1 [IR-P-5]	69.6	B (50% > degradation rate ≥ 20%)	–	78	–

Second part, led by results:

IC50 [2] [nM]	IRAK4 degradation (10nM) [3]	IRAK4 degradation (100nM) [3]	Structure (SMILES)	inhibition at […] [1] [%]	inhibition at 0.02 µM ([1]; 20nM, read-out: Inhibition Rate of IL-6 (20nM)) [%]
184	B (50% > degradation rate ≥ 20%)	B (50% > degradation rate ≥ 20%)	O=C1CCN(c2ccc3c(c2)OCC[C@@H]2CN(C[C@H]4CC[C@@H](OC5CCN(C(=O)[C@H]6CC[C@H](n7cc(NC(=O)c8cnn9ccc(N%10C[C@H]%11C[C@@H]%10CO%11)nc89)c(C(F)F)n7)CC6)CC5)CC4)CCN32)C(=O)N1 [IR-P-2]	86	–
142	B (50% > degradation rate ≥ 20%)	A (a degradation rate ≥ 50%)	O=C1CCN(c2ccc3c(c2)OCC[C@@H]2CN(C[C@H]4CC[C@H](OC5CCN(C(=O)[C@H]6CC[C@H](n7cc(NC(=O)c8cnn9ccc(N%10C[C@H]%11C[C@@H]%10CO%11)nc89)c(C(F)F)n7)CC6)CC5)CC4)CCN32)C(=O)N1 [IR-P-4]	84	–
